The results in this text go back to patent US20040039060A1, “Inhibitor for enzyme having two divalent metal ions as active centers” (priority 2000, published 2004).

The target of one data set is HIV-1 integrase (Human immunodeficiency virus type 1 group M subtype B, UniProt P04585). Description: HIV-1 integrase inhibition assay (microtiter plate, immobilised substrate DNA, Dig-labelled target DNA, OD 405 nm). It is filed as biochemical. As to the method: Substrate DNA and target DNA, which sequences were indicated below, were synthesized by Amersham Pharmacia Biotech and dissolved in KTE buffer (composition: 100 mM KCl, 1 mM EDTA, 10 mM Tris-HCl (pH 7.6)) at concentration of 2 pmol/μl and 5 pmol/μl, respectively. The DNA solutions were annealed with each complement by slowly cooling after heating.
Streptavidin, obtained from Vector Laboratories, was dissolved in 0.1 M carbonate buffer (composition: 90 mM Na2CO3, 10 mM NaHCO3) at concentration of 40 μg/ml. After coating each well of microtiter plates (obtained from NUNC) with 50 μl of the above solution at 4° C. overnight, each well was washed twice with PBS (composition: 13.7 mM NaCl, 0.27 mM KCl, 0.43 mM Na2HPO4, 0.14 mM KH2PO4) and blocked with 300 μl of 1% skim milk in PBS for 30 min. Additionally, each well was washed twice with PBS and added 50 μl of substrate DNA solution (2 pmol/μl). The microtiter plates were kept at room temperature for 30 min. Then, each well was washed twice with PBS and once with H2O.
Subsequently, in the each well prepared above were added 45 μl of the reaction buffer prepared from 12 μl of the buffer (composition: 150 mM MOPS (pH 7.2), 75 mM MnCl2, 50 mM 2-mercaptoethanol, 25% glycerol, 500 μg/ml bovine serum albumin-fraction V), 1 μl of target DNA (5 pmol/μl), and 32 μl of the distilled water. Additionally, 6 μl of either a test compound in DMSO or DMSO for positive control(PC) was mixed with the above reaction buffer, then 9 μl of an integrase solution (30 pmol) was added and mixed well. In the well of negative control (NC) was added 9 μl of the integrase dilution buffer (composition: 20 mM MOPS (pH7.2), 400 mM potassium glutamate, 1 mM EDTA, 0.1% NP-40, 20% glycerol, 1 mM DTT, 4M urea).
The microtiter plates were incubated at 30° C. for 1 hour. The reaction solution was removed and each well was washed twice with PBS. Subsequently, each well of the microtiter plates was filled with 100 μl of anti-digoxigenin antibody labeled with alkaline phosphatase (Sheep Fab fragment: obtained from Boehringer) and incubated at 30° C. for 1 hour. Then, each well was washed twice with 0.05% Tween20 in PBS and once with PBS. Next, 150 μl of the Alkaline phosphatase reaction buffer (composition: 10 mM p-Nitrophenylphosphate (obtained from Vector Laboratories), 5 mM MgCl2, 100 mM NaCl, 100 mM Tris-HCl (pH 9.5)) was added in each well. […] The optical density (OD) at 405 nm of each well was measured and the percent inhibition was determined by the following expression.
The percent inhibition (%)=100[1-{(C abs.−NC abs.)/(PC abs.−NC abs.)}]
When the percent inhibition (%) is X % at the concentration of x μg/ml and the percent inhibition (%) is Y % at the concentration of y μg/ml, one of which is more than 50% and the other is less than 50%, IC50 can be determined by the following expression.
IC50(μg/ml)=x-{(X-50)(x-y)/(X-Y)}
Compound No. in the Table 1 is the same as compound No. of the above example.

Structures are written as SMILES. Some results are limits rather than exact numbers.

`O=C(C=C(O)c1nn[nH]n1)c1ccc(Cc2ccc(F)cc2)o1` [Compound A-1, 1-[5-(4-Fluorobenzyl)furan-2-yl]3-hydroxy-3-(2H-tetrazol-5-yl)-propenone]: the melting point (usually the temperature of the solid-liquid transition) lay in the range of 121 to 123 °C. In addition, half-maximal inhibition against HIV-1 integrase (IC50) was put at 1.27 µM.

Regarding `O=C(C=C(O)c1ncccn1)c1ccc(Cc2ccc(F)cc2)o1` [Compound A-2, 1-[5-(4-Fluorobenzyl)furan-2-yl]-3-hydroxy-3-(pyrimidin-2-yl)-propenone], the melting point is 77 to 80 °C. For the same compound, on HIV-1 integrase, the IC50 (commonly the concentration that inhibits the measured activity by half) is 0.247 µM.

`O=C(C=C(O)c1cnccn1)c1ccc(Cc2ccc(F)cc2)o1` [Compound A-3, 1-[5-(4-Fluorobenzyl)furan-2-yl]-3-hydroxy-3-(pyrazin-2-yl)-propenone] yielded a melting point of 127 to 129 °C. The IC50 on HIV-1 integrase was 1.85 µM.

`O=C(C=C(O)c1ccccn1)c1ccc(Cc2ccc(F)cc2)o1` [Compound A-4, 1-[5-(4-Fluorobenzyl)furan-2-yl]-3-hydroxy-3-(pyridin-2-yl)-propenone] had a melting point of 84 to 85 °C. This compound showed an IC50 against HIV-1 integrase of 0.619 µM.

In the case of `O=C(O)c1ccnc(C(O)=CC(=O)c2ccc(Cc3ccc(F)cc3)o2)c1` [Compound A-5, 3(4-Carboxypyridin-2-yl)-1-[5-(4-fluorobenzyl)furan-2-yl]-3-hydroxy-propenone], the melting point was 208 to 210 °C. It took 0.191 µM to reach half-maximal inhibition against HIV-1 integrase (IC50).

`O=C(O)c1ccc(C(O)=CC(=O)c2ccc(Cc3ccc(F)cc3)o2)nc1` [Compound A-6, 3-(5-Carboxypyridin-2-yl)-1-[5-(4-fluorobenzyl)furan-2-yl]-3-hydroxy-propenone] came in with a melting point of 196 to 198 °C. The compound also gave an IC50 against HIV-1 integrase of 0.272 µM.

`O=C(C=C(O)c1cc2ccccc2cn1)c1ccc(Cc2ccc(F)cc2)o1` [Compound A-7, 1-[5-(4-Fluorobenzyl)furan-2-yl]-3-hydroxy-3-(isoquinolin-3-yl)-propenone] gave a melting point of 154 to 156 °C. For the same compound, half-maximal inhibition at HIV-1 integrase (IC50) required 3.75 µM.

On to `O=C(C=C(O)c1ccon1)c1ccc(Cc2ccc(F)cc2)o1` [Compound A-9, 1-[5-(4-Fluorobenzyl)furan-2-yl]-3-hydroxy-3-(isoxazol-3-yl)-propenone], for which the melting point is 50 to 52 °C. Moreover, on HIV-1 integrase, it took 10.5 µM to reach half-maximal inhibition (IC50).

In turn, `Cc1cc(C(O)=CC(=O)c2ccc(Cc3ccc(F)cc3)o2)no1` [Compound A-10, 1-[5-(4-Fluorobenzyl)furan-2-yl]-3-hydroxy-3-(5-methylisoxazol-3-yl)-propenone] showed a melting point of 95 to 97 °C. Further, half-maximal inhibition on HIV-1 integrase (IC50) was put at 5.5 µM.

The compound `O=C(C=C(O)c1ccco1)c1ccc(Cc2ccc(F)cc2)o1` [Compound B-1, 1-[5-(4-Fluorobenzyl)furan-2-yl]-3-(furan-2-yl)-3-hydroxy-propenone] yielded a melting point of 44 to 45 °C. For the same compound, the IC50 against HIV-1 integrase was above 320 µM.

Compound `O=C(C=C(O)c1ccoc1)c1ccc(Cc2ccc(F)cc2)o1` [Compound B-2, 1-[5-(4-Fluorobenzyl)furan-2-yl]-3-(furan-37yl)-3-hydroxy-propenone] returned a melting point of 53 to 55 °C. The compound also displayed an IC50 on HIV-1 integrase above 320 µM.

`O=C(C=C(O)c1cccs1)c1ccc(Cc2ccc(F)cc2)o1` [Compound B-3, 1-[5-(4-Fluorobenzyl)furan-2-yl]-3-(thiophen-2-yl)-3-hydroxy-propenone] showed a melting point of 50 to 52 °C. On HIV-1 integrase, this compound yielded an IC50 above 305 µM.

In turn, `O=C(C=C(O)c1cccnc1)c1ccc(Cc2ccc(F)cc2)o1` [Compound B-4, 1-[5-(4-Fluorobenzyl)furan-2-yl]-3-hydroxy-3-(pyridin-3-yl)-propenone] showed a melting point of 53 to 54 °C. On HIV-1 integrase, this compound gave an IC50 above 309 µM.

Compound `Cn1cccc1C(O)=CC(=O)c1ccc(Cc2ccc(F)cc2)o1` [Compound B-5, 1-[5-(4-Fluorobenzyl)furan-2-yl]-3-hydroxy-3-(1-methylpyrrol-2-yl)-propenone] returned a melting point of 75 to 76 °C. At HIV-1 integrase, the IC50 is above 307 µM.

Regarding `O=C(/C=C(\O)c1ccc[nH]1)c1ccc(Cc2ccc(F)cc2)o1` [Compound B-6, 1-[5-(4-Fluorobenzyl)furan-2-yl]-3-hydroxy-3-(pyrrol-2-yl)-propenone], at HIV-1 integrase, the 50% inhibitory concentration (IC50) is above 321 µM.

As for `Cc1cc(C(O)=CC(=O)c2ccc(Cc3ccc(F)cc3)o2)on1` [Compound B-7, 1-[5-(4-Fluorobenzyl)furan-2-yl]-3-hydroxy-3-(3-methylisoxazol-5-yl)-propenone], the melting point fell in the range of 106 to 107 °C. This compound also had an IC50 against HIV-1 integrase above 306 µM.

As for `O=C(C=C(O)c1ccncc1)c1ccc(Cc2ccc(F)cc2)o1` [Compound B-8, 1-[5-(4-Fluorobenzyl)furan-2-yl]-3-hydroxy-3-(pyridin-4-yl)-propenone], the melting point is 90 to 92 °C. The compound also showed an IC50 at HIV-1 integrase above 309 µM.

For `O=C(C=C(O)c1ncccc1C(=O)O)c1ccc(Cc2ccc(F)cc2)o1` [Compound B-9, 3-(3-Carboxypyridin-2-yl)-1-[5-(4-fluorobenzyl)furan-2-yl]-3-hydroxy-propenone], the melting point fell in the range of 127 to 130 °C. Further, the IC50 against HIV-1 integrase was above 272 µM.

On HIV-1 integrase, `OC(=Cc1cc(CCc2ccccc2)ncn1)c1nnn[nH]1` [Compound C-2] gave an IC50 of 4.76 µM.

The compound `OC(=Cc1cc(CCc2ccccc2)ncn1)c1ncn[nH]1` [Compound C-3] had an IC50 at HIV-1 integrase of 1.7 µM.

On HIV-1 integrase, `OC(=Cc1cc(CCc2ccccc2)ncn1)c1nccs1` [Compound C-4] showed an IC50 of 1.94 µM.

Compound `OC(=Cc1cc(CCc2ccccc2)ncn1)c1cnccn1` [Compound C-5] had an IC50 at HIV-1 integrase of 5.26 µM.

On HIV-1 integrase, `Cc1cc(C(O)=Cc2cc(CCc3ccccc3)ncn2)no1` [Compound C-6] showed an IC50 of 2.73 µM.

As for `O=C(O)C(O)=Cc1cnc(CCc2ccccc2)cn1` [Compound C-7], on HIV-1 integrase, the IC50 is 2.26 µM.

In the case of `O=C(O)/C(O)=C/c1ccc(OCc2ccccc2)cn1` [Compound C-8], the IC50 at HIV-1 integrase was 1.7 µM.

In the case of `Cc1cc(C(O)=Cc2cc(CCc3ccccc3)ncn2)on1` [Compound D-1], the IC50 on HIV-1 integrase is above 325 µM.

Compound `O=C(O)C(O)Cc1cc(CCc2ccccc2)ncn1` [Compound D-3] gave an IC50 against HIV-1 integrase above 367 µM.

Turning to `COC(=O)C(=O)c1oc2ccc(OCc3ccc(F)cc3)cc2c1O` [Compound E-1, [5-(4-Fluoro-benzyloxy)-3-hydroxy-benzofuran-2-yl]-2-oxo-acetic acid methyl ester], on HIV-1 integrase, the IC50 is 7.55 µM.

On HIV-1 integrase, `O=C(O)C(=O)c1oc2ccc(OCc3ccc(F)cc3)cc2c1O` [Compound E-2, [5-(4-Fluoro-benzyloxy)-3-hydroxy-benzofuran-2-yl]-2-oxo-acetic acid] showed an IC50 of 7.87 µM.

In the case of `COC(=O)C(=O)c1oc2ccc(Cc3ccc(F)cc3)cc2c1O` [Compound E-5, [5-(4-Fluoro-benzyl)-3-hydroxy-benzofuran-2-yl]-2-oxo-acetic acid methyl ester], the melting point is 128 to 130 °C.

The compound `O=C(O)C(=O)c1oc2ccc(Cc3ccc(F)cc3)cc2c1O` [Compound E-6, [5-(4-Fluorobenzyl)-3-hydroxy-benzofuran-2-yl]-2-oxo-acetic acid] came in with a melting point of 207 to 210 °C.

With `O=C(c1ccccn1)c1oc2ccc(Cc3ccc(F)cc3)cc2c1O` [Compound E-8, 1-[5-(4-Fluoro-benzyl)-3-hydroxy-benzofuran-2-yl]-1-pyridine-2-yl-methanone], the melting point was 258 °C (dec.).
